Key:
[1] = molecular target: T1, binding of KRAS^G12C to SOS1 (Homo sapiens, UniProt Q07889); experiment: Inhibition of the binding of KRAS^G12C to SOS1; conditions: Tag1-SOS1 / Tag2-KRAS^G12C, 2 h incubation at room temperature; read-out: IC50 (nM), inhibitory activity on the binding of KRAS^G12C to SOS1
T1 construct: Tag1 (unspecified)
T1 sequence (Q07889 1-1333): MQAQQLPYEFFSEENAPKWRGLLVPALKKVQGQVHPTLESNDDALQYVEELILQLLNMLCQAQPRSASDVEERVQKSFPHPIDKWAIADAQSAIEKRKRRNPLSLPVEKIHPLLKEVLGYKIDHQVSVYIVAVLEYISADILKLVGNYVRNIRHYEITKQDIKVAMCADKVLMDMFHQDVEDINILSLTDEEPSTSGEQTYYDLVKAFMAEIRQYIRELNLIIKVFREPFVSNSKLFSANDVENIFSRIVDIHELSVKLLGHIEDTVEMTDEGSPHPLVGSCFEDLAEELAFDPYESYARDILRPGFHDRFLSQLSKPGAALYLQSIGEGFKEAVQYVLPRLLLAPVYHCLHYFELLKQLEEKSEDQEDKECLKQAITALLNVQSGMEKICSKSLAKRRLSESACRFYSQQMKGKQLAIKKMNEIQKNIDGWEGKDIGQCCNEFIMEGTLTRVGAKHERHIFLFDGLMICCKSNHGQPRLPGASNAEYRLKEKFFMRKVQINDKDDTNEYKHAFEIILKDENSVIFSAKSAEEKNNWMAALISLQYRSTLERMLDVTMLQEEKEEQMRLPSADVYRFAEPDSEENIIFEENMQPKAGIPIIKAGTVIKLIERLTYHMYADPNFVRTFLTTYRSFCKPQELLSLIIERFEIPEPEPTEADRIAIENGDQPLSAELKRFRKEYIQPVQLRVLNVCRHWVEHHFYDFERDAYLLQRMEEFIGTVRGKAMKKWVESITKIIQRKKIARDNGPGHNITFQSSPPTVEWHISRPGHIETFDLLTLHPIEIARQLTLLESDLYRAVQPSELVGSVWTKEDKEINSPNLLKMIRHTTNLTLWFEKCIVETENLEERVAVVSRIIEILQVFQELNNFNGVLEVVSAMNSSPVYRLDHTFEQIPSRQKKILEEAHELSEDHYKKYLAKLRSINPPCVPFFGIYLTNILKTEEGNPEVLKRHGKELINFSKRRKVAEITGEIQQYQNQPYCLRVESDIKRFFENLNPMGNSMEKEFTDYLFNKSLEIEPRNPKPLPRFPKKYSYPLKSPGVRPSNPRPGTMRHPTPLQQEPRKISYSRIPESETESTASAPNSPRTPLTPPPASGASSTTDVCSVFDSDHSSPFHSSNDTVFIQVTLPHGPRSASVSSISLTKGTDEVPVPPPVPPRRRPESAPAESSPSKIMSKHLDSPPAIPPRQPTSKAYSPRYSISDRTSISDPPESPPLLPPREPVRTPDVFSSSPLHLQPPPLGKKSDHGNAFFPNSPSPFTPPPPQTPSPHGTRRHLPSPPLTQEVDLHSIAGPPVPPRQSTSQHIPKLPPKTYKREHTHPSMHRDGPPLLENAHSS
In short: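 Tag1-SOS1 and Tag2-KRAS^G12C mixed with serially diluted compound (final 0.25% DMSO), then anti-Tag1-Tb3+ and anti-Tag2-XL665 added for 2 h at room temperature. IC50 from curve fit of the TR-FRET signal.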

[2] = test system: H358 cells; experiment: Inhibition of H358 cell proliferation (CellTiter-Glo 3D, 7 days); assay type: cell-based; conditions: Homo sapiens, 168 h, NCI-H358, 7 days, read-out: IC50 (nM), inhibitory activity on H358 cell proliferation
Protocol: • (a) The cells were thawed in T75 cell culture flasks:
• (b) When 80-90% cell confluence was achieved, the cells were passaged.
The diluted test compounds were added to a 384-well cell culture plate using a nanoliter pipetting system, and duplicate wells were set. An equal volume of medium was added to the positive control group; an equal volume of DMSO was added to the negative control group. The plate was centrifuged at 1000 rpm at room temperature for 1 min.
The cells were inoculated into a) 384-well culture plate, an equal volume of cells was added to the negative control group, and only an equal volume of medium was added to the positive control group. The plate was centrifuged at 1000 rpm at room temperature for 1 min. The final concentration of DMSO in the final compounds was 0.5%. The plate was incubated in a thermostatic incubator at 37° C. with 5% CO2 for 7 days.
CellTiter-Glo® 3D was added to b) 384-well cell culture plate at 20 μL/well. The plate was shaken at 320 rpm in the dark for 20 min, and incubated at room temperature in the dark for 2 h. The luminescence values were read using an Envision multi-mode microplate reader.
The inhibition rates of the compounds at different concentrations were calculated in Excel, and then inhibition curves were plotted and relevant parameters including minimum inhibition rate, maximum inhibition rate and IC50 were calculated using GraphPad Prism software.

[3] = test system: MIA PaCa-2 tumor cells; experiment: Anti-tumor pharmacodynamic evaluation, MIA PaCa-2 subcutaneous xenograft; assay type: in vivo; conditions: MIA PaCa-2 in nude mice
Protocol: 100 μL of a suspension containing 5×10^6 MIA PaCa-2 tumor cells was subcutaneously inoculated into the right posterior abdomens of nude mice. The health of the mice was monitored daily, and measurements were started when tumors grew to be palpable. The tumor volume was calculated as follows: 0.5×L×W^2, where L and W represent the length and width of the tumor, respectively. When the tumors grew to about 100 mm^3, the mice were randomized into groups. The mice were intragastrically administered a corresponding dose (50 mg/kg) of compound suspension in CMC-Na twice daily, and their general states were monitored at the same time. The tumors were measured 3 times a week, and the body weight was measured twice a week.

[4] = Day 21, 50 mg/kg intragastric twice daily

## COCCOc1cc2c(N[C@H](C)c3cccc(C(F)(F)C(C)(C)O)c3F)nc(C)nc2cc1OC [Example 72, (R)-1,1-Difluoro-1-(2-fluoro-3-(1-((7-methoxy-6-(2-methoxyethoxy)-2-methylquinazolin-4-yl)amino)ethyl)phenyl)-2-methylpropan-2-ol]
[1]
  IC50: 3.2 nM
[2]
  IC50: 16.6 nM
[3]; Day 0 (at grouping), 50 mg/kg intragastric twice daily
  TV (mm^3) (tumor volume) Day 0: 103 mm^3
[3]; [4]
  % TGI (tumor growth inhibition): 84.9%
  TV (mm^3) (tumor volume) Day 21: 175 mm^3
